Assay results: US20240041830A1, “CIRCULATING BIOMARKERS OF RESPONSE TO PD-1/PD-L1 BLOCKADE AND GSK-3 INHIBITION” (Brown University, priority 2022, published 2024)

Columns and labels:
Saos-2 osteosarcoma = test: Luminex cytokine profiling; type: cell-based; settings: 0.5 μM, twenty-four hours
Experimental: (§1) Human cytokine profiling. Human cell line culture supernatants were analyzed using an R&D systems Human Premixed Multi-Analyte Kit (R&D Systems, Inc., Minneapolis, MN, USA) and a Luminex 200 (RRID: SCR_018025) Instrument (LX200-XPON-RUO, Luminex Corporation, Austin, TX, USA) according to the manufacturer's instructions. Sample levels of TNF-α, 4-1BB/TNFRSF9/CD137, IL-8/CXCL8, Ferritin, IFN-β, IL-10, CCL2/JE/MCP-1, VEGF, CXCL13/BLC/BCA-1, IFN-γ, CCL20/MIP-3 α, CCL3/MIP-1 α, CCL22/MDC, CCL4/MIP-1 β, Fas Ligand/TNFSF6, IL-17/1L-17A, IL-2, BAFF/BLyS/TNFSF13B, GM-CSF, CXCLS/ENA-78, TRANCE/TNFSF11/RANK L, CXCL9/MIG, G-CSF, IFN-γ R1/CD119, VEGFR3/Flt-4, C-Reactive Protein/CRP, CXCL11/I-TAC, IL-21, CXCL14/BRAK, IL-6, Fas/TNFRSF6/CD95, TRAIL R3/TNFRSF10C, IL-4, CCL5/RANTES, PD-L1/137-H1, CCL7/MCP-3/MARC, Chitinase 3-like 1, CXCL10/IP-10/CRG-2, IL-1 μ/IL-1F2, IL-7, Prolactin, CCL8/MCP-2, TRAIL R2/TNFRSF10B, M-CSF, IL-15, Granzyme B, IFN-α, TREM-1, IL-12/1L-23 p40, TRAIL/TNFSF10, CCL11/Eotaxin, and 1L-18/1L-1F4. Quantitative analysis with 6 standards and a minimum of 50 counts per bead region was used with the Luminex to generate analyte values reported as picograms/milliliter (pg/mL). Sample concentrations less than the lower limit of detection for each particular analyte were recoded as the lower limit value divided by 10. Sample concentrations above the upper limit of detection for a particular analyte were recoded as the upper limit of detection.
(§2) Saos-2 osteosarcoma and 93T449 liposarcoma cell lines were pretreated at IC50 with elraglusib. The cells were harvested for Western blot analysis after 48 hours of treatment. Both cancer cell lines as well as TALL-104 T-cells and NK-92 NK cells were treated with 0.5 μM elraglusib for twenty-four hours and harvested for Luminex cytokine profiling.

93T449 liposarcoma = test: Luminex cytokine profiling; type: cell-based; settings: 0.5 μM, twenty-four hours
Experimental: as §1, §2

HT-29 GFP+ cells = test: single-color GFP+ immune cell co-culture
Experimental: Single-color immune cell co-culture experiments. A total of 5000 HT-29 GFP+ or HCT 116 GFP+ cells were plated per well in a clear-bottom, black-walled 96-well tissue culture plate and were allowed to adhere overnight. Cells were subsequently treated with DMSO, 5 μM elraglusib, or 5000 TALL-104 or NK-92 cells (for an effector-to-tumor ratio of 1:1) for forty-eight hours. Nine images were taken per well at 10× magnification using a Molecular Devices ImageXpress® Confocal HT.ai High-Content Imaging System and quantified for the number of GFP+ objects using the MetaXpress (RRID: SCR_016654) software (Molecular Devices, San Jose, CA, USA). 40× images were also taken at twenty-four hours for representative images of cellular morphology changes.
To determine if pyroptosis-mediated immune cell activity played a role in the co-culture results, the inventors examined higher-power co-culture images for evidence of pyroptosis.

NK-92 [1] = test: 10× single-cell sequencing; type: cell-based, human; settings: 1 μM, twenty-four hours vs DMSO
Experimental: (§3) Single-cell RNA sequencing. Single cells were captured and 3′ single-cell gene expression libraries were conducted (Next GEM v3.1) using the 10× Genomics Chromium system by SingulOmics (SingulOmics, New York, NY, USA). Gene expression libraries were sequenced with ˜200 million PE150 reads per sample on Illumina (RRID: SCR_016387) NovaSeq (Illumina, Inc., San Diego, CA, USA). After sequencing, clean reads were then analyzed with human reference genome GRCh38 using Cell Ranger v6.1.2 (RRID: SCR_017344, 10× Genomics, Pleasanton, CA, USA). Data were analyzed and visualized using Loupe Browser (RRID: SCR_018555, 10× Genomics, Pleasanton, CA, USA).
(§4) To determine if there was any heterogeneity in response to drug treatment, the inventors employed a 10× single-cell sequencing analysis on both immune cell lines (TALL-104, NK-92) treated with low-dose 1 μM elraglusib or vehicle control (DMSO) for twenty-four hours. Samples clustered by cell type when aggregate data were visualized using a t-SNE plot (FIG. 3G). […] The inventors noted an increase in immune cell attractant CCL4 in the NK-92 cells and an increase in immune cell chemoattractant CXCR4 in the TALL-104 cells.

TALL-104 = test: 10× single-cell sequencing; type: cell-based, human; settings: 1 μM, twenty-four hours vs DMSO
Experimental: as §3, §4

SW480 = test: multicolor co-culture of SW480 and donor-derived CD8+ T cells; settings: co-culture with donor-derived CD8+ T cells, 24 hours, normalized
Experimental: Isolation of donor-derived CD8+ T cells. An Easy Step Human CD8+ T Cell Isolation Kit was used to isolate CD8+ T cells from a donor PBMC sample via negative selection (Cat #, 17913, Stem Cell Technologies, Vancouver, Canada).
Multicolor immune cell co-culture experiments. A total of 10,000 HCT-116, SW480, or HT-29 colorectal cancer cells were plated per well in a clear-bottom, black-walled 48-well tissue culture plate and were allowed to adhere overnight. Cells were subsequently treated with DMSO, 5 μM or 10 μM elraglusib, or 10,000 TALL-104, donor-derived CD8+ T cells, or NK-92 cells (for an effector-to-tumor ratio of 1:1) for twenty-four hours. Immune cell monocultures were treated with DMSO, 5 μM or 10 μM elraglusib and cell viability was monitored to ensure that the concentrations of drug used were not cytotoxic to immune cells. […] 10× images were captured using a Nikon Ti-U Inverted Fluorescence Microscope and NIS-Elements F Package imaging software 3.22.00 Build 710 (Nikon Instruments Inc., New York, NY, USA). The number of red/green color cells in random fields was determined using thresholding and particle analysis in the Fiji modification (RRID: SCR_002285) of ImageJ and expressed as a dead/live cell ratio. […] At least one hundred cells were evaluated per sample, with three independent replicates. […]

NK-92 [2] = test: microarray analysis; type: cell-based, human; settings: 1 μM, 24 hours, vs untreated
Experimental: Microarrays. A total of 0.5×10^6 tumor cells (HCT-116, HT-29, KM12C) were plated in a 6-well plate and allowed to adhere overnight before 24-hour treatment, as indicated. Then, 1×10^6 immune cells (NK92, TALL-104) were plated and treated with elraglusib as indicated for twenty-four h. RNA was isolated from cell pellets in batches of six using a RNeasy Plus Mini Kit (Cat #74134, Qiagen, Hilden, Germany). Acceptable RNA concentration and quality were verified with Nanodrop and Bioanalyzer measurements. GeneChip™ Human Transcriptome Array 2.0 assays were conducted according to manufacturer instructions in two batches using randomized samples to limit batch effects (Cat #902162, Applied Biosystems, Waltham, MA, USA). Applied Biosystems Transcriptomic Analysis Console (TAC) software (RRID: SCR_016519) was used to calculate fold changes in gene expression relative to the untreated control cells. Values were considered statistically significant for p values<0.05.
Microarray analysis was used to obtain insights into gene expression changes in immune cell lines post-GSK-3 inhibition with elraglusib. Immune cell lines (TALL-104, NK-92) were treated with elraglusib at IC50 concentrations or DMSO as vehicle control for twenty-four hours and treated versus untreated samples were compared in triplicate using microarray analysis. FIG. 11. Results were calculated using a fold-change (FC) cutoff of >1.5, <−1.5, and a minimum p-value of <0.05. NK-92 cells had sixty-one differentially expressed genes post-treatment (FIG. 3D). the inventors observed an increase in genes that promote immune cell proliferation (TNFSF14, RAB38) and control immune cell adhesion and migration (WNK1) post-elraglusib treatment.
TABLE 11 description. NK-92 immune cell microarray analysis. NK-92 immune cells were treated with 1 μM elraglusib for 24 hours and treated versus untreated control samples were compared in triplicate via microarray analysis (N=3).

Cn1cc(C2=C(c3coc4ccc(F)cc34)C(=O)NC2=O)c2cc3c(cc21)OCO3 [elraglusib]
TGF-α (Saos-2 osteosarcoma): increase | IL-6 (Saos-2 osteosarcoma; only Saos-2): increase | TGF-α (93T449 liposarcoma): increase | tumor cell death, significance (HT-29 GFP+ cells; NK-92 + elraglusib vs elraglusib only): did not show statistical significance | tumor cell death (HT-29 GFP+ cells; NK-92 + elraglusib vs immune cells only and DMSO only): increased tumor cell death | tumor cell death (HT-29 GFP+ cells; TALL-104 + 5 μM elraglusib vs drug-only or T cell-only): increased tumor cell death | pyroptotic events (HT-29 GFP+ cells; co-culture with TALL-104, 5 μM elraglusib): significant increase | CCL4 expression (NK-92 [1]): increase | CD69 expression (NK-92 [1]): increase | CHI3L1 expression (NK-92 [1]): decrease | CD69 expression (TALL-104): increase | CHI3L1 expression (TALL-104): decrease | CXCR4 expression (TALL-104): increase | dead cells out of total cells (SW480; 5 μM): 65% | dead cells out of total cells (SW480; 10 μM): 75% | ITGB8 Fold Change (NK-92 [2]): −1.53 | MIR186 Fold Change (NK-92 [2]): −1.52 | NAP1L1 Fold Change (NK-92 [2]): −1.51 | RAB38 Fold Change (NK-92 [2]): 1.65 | RNY5 Fold Change (NK-92 [2]): 3.32 | S100A12 Fold Change (NK-92 [2]): −1.78 | TNFSF14 Fold Change (NK-92 [2]): 1.5 | WNK1 Fold Change (NK-92 [2]): 1.5
